In paper PMC10504751, “Chalcone/1,3,4-Oxadiazole/Benzimidazole hybrids as novel anti-proliferative agents inducing apoptosis and inhibiting EGFR & BRAFV^600E” (BMC Chemistry, 2023):

Key:
Experiment in all cases: NCI one-dose SRB anti-proliferative screen
Type in all cases: cell-based
[1] = system: 786-0; conditions: Homo sapiens; 786-0, Renal cancer; NCI one dose; read-out: Cell growth inhibition %
In short: (§1)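 Compounds were tested at a single 10 µM concentration within a 60-cell-line panel covering nine tumour subpanels. Growth was read colorimetrically by sulforhodamine B staining.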

[2] = system: A498; conditions: Homo sapiens; A498, Renal cancer; NCI one dose; read-out: Cell growth inhibition %
In short: as §1

[3] = system: ACHN; conditions: Homo sapiens; ACHN, Renal cancer; NCI one dose; read-out: Cell growth inhibition %
In short: as §1

[4] = system: BT-549; conditions: Homo sapiens; BT-549, Breast cancer; NCI one dose; read-out: Cell growth inhibition %
In short: as §1

[5] = system: CAKI-1; conditions: Homo sapiens; CAKI-1, Renal cancer; NCI one dose; read-out: Cell growth inhibition %
In short: as §1

[6] = system: DU-145; conditions: Homo sapiens; DU-145, Prostate Cancer; NCI one dose; read-out: Cell growth inhibition %
In short: as §1

[7] = system: HL-60(TB); conditions: Homo sapiens; HL-60(TB), Leukemia; NCI one dose; read-out: Cell growth inhibition %
In short: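 Activity reflects a single-point exposure at 10 µM, with cell mass determined by a sulforhodamine B dye assay.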

[8] = system: HOP-92; conditions: Homo sapiens; HOP-92, Non-Small Cell Lung Cancer; NCI one dose; read-out: Cell growth inhibition %
In short: as §1

[9] = system: HS 578T; conditions: Homo sapiens; HS 578T, Breast cancer; NCI one dose; read-out: Cell growth inhibition %
In short: as §1

[10] = system: HT29; conditions: Homo sapiens, HT-29; HT29, Colon cancer; NCI one dose; read-out: Cell growth inhibition %
In short: as §1

[11] = system: IGROV1; conditions: Homo sapiens, IGROV-1; IGROV1, Ovarian Cancer; NCI one dose; read-out: Cell growth inhibition %
In short: as §1

[12] = system: KM12; conditions: Homo sapiens; KM12, Colon cancer; NCI one dose; read-out: Cell growth inhibition %
In short: as §1

[13] = system: LOX IMVI; conditions: Homo sapiens, Melanoma, NCI one dose, read-out: Cell growth inhibition %
In short: as §1

[14] = system: MCF7; conditions: Homo sapiens; MCF7, Breast cancer; NCI one dose; read-out: Cell growth inhibition %
In short: as §1

[15] = system: MDA-MB-231/ATCC; conditions: Homo sapiens; MDA-MB-231/ATCC, Breast cancer; NCI one dose; read-out: Cell growth inhibition %
In short: as §1

[16] = system: MDA-MB-435; conditions: Homo sapiens; MDA-MB-435, Melanoma; NCI one dose; read-out: Cell growth inhibition %
In short: as §1

[17] = system: MDA-MB-468; conditions: Homo sapiens; MDA-MB-468, Breast cancer; NCI one dose; read-out: Cell growth inhibition %
In short: as §1

[18] = system: NCI-H460; conditions: Homo sapiens; NCI-H460, Non-Small Cell Lung Cancer; NCI one dose; read-out: Cell growth inhibition %
In short: as §1

[19] = system: NCI/ADR-RES; conditions: Homo sapiens; NCI/ADR-RES, Ovarian Cancer; NCI one dose; read-out: Cell growth inhibition %
In short: as §1

[20] = system: OVCAR-3; conditions: Homo sapiens; OVCAR-3, Ovarian Cancer; NCI one dose; read-out: Cell growth inhibition %
In short: as §1

[21] = system: OVCAR-5; conditions: Homo sapiens; OVCAR-5, Ovarian Cancer; NCI one dose; read-out: Cell growth inhibition %
In short: as §1

[22] = system: OVCAR-8; conditions: Homo sapiens; OVCAR-8, Ovarian Cancer; NCI one dose; read-out: Cell growth inhibition %
In short: as §1

[23] = system: PC-3; conditions: Homo sapiens; PC-3, Prostate Cancer; NCI one dose; read-out: Cell growth inhibition %
In short: as §1

[24] = system: RPMI-8226; conditions: Homo sapiens; RPMI-8226, Leukemia; NCI one dose; read-out: Cell growth inhibition %
In short: as §1

[25] = system: SF-268; conditions: Homo sapiens; SF-268, CNS Cancer; NCI one dose; read-out: Cell growth inhibition %
In short: as §1

[26] = system: SF-539; conditions: Homo sapiens; SF-539, CNS Cancer; NCI one dose; read-out: Cell growth inhibition %
In short: as §1

[27] = system: SK-MEL-28; conditions: Homo sapiens; SK-MEL-28, Melanoma; NCI one dose; read-out: Cell growth inhibition %
In short: as §1

[28] = system: SK-MEL-2; conditions: Homo sapiens; SK-MEL-2, Melanoma; NCI one dose; read-out: Cell growth inhibition %
In short: as §1

[29] = system: SR; conditions: Homo sapiens; SR, Leukemia; NCI one dose; read-out: Cell growth inhibition %
In short: as §1

[30] = system: SW-620; conditions: Homo sapiens; SW-620, Colon cancer; NCI one dose; read-out: Cell growth inhibition %
In short: as §1

[31] = system: TK-10; conditions: Homo sapiens; TK-10, Renal cancer; NCI one dose; read-out: Cell growth inhibition %
In short: as §1

[32] = system: UO-31; conditions: Homo sapiens; UO-31, Renal cancer; NCI one dose; read-out: Cell growth inhibition %
In short: as §1

O=C(CSc1nnc(-c2ccc3[nH]c(-c4ccccc4)nc3c2)o1)Nc1ccc(C(=O)/C=C/c2ccccc2)cc1 [Compound 7a, 2-{5-[2-Phenyl-1 H-benzo[d]imidazol-5-yl]-1,3,4-oxadiazol-2-ylthio}-N-{4-[(E)-3-phenylacryloyl]phenyl}acetamide]
inhibition at 10 µM [1]: 0%
inhibition at 10 µM [2]: 4.13%
inhibition at 10 µM [3]: 0%
inhibition at 10 µM [4]: 3.16%
inhibition at 10 µM [5]: 0%
inhibition at 10 µM [6]: 0%
inhibition at 10 µM [7]: 0%
inhibition at 10 µM [8]: 0%
inhibition at 10 µM [9]: 0%
inhibition at 10 µM [10]: 0%
inhibition at 10 µM [11]: 4.17%
inhibition at 10 µM [12]: 0%
inhibition at 10 µM [13]: 2.69%
inhibition at 10 µM [14]: 12.4%
inhibition at 10 µM [15]: 0%
inhibition at 10 µM [16]: 0%
inhibition at 10 µM [17]: 0%
inhibition at 10 µM [18]: 0%
inhibition at 10 µM [19]: 0%
inhibition at 10 µM [20]: 0%
inhibition at 10 µM [21]: 0%
inhibition at 10 µM [22]: 0.04%
inhibition at 10 µM [23]: 0%
inhibition at 10 µM [24]: 5.75%
inhibition at 10 µM [25]: 0%
inhibition at 10 µM [26]: 3.15%
inhibition at 10 µM [27]: 0%
inhibition at 10 µM [28]: 0%
inhibition at 10 µM [29]: 0%
inhibition at 10 µM [30]: 0%
inhibition at 10 µM [31]: 0%
inhibition at 10 µM [32]: 12.6%

O=C(CSc1nnc(-c2ccc3[nH]c(-c4ccccc4)nc3c2)o1)Nc1ccc(C(=O)/C=C/c2ccc(Cl)cc2)cc1 [Compound 7b, 2-{5-[2-Phenyl-1 H-benzo[d]imidazol-5-yl]-1,3,4-oxadiazol-2-ylthio}-N-{4-[(E)-3-(4-chlorophenyl)acryloyl]phenyl}acetamide]
inhibition at 10 µM [1]: 2.96%
inhibition at 10 µM [2]: 6.84%
inhibition at 10 µM [3]: 0%
inhibition at 10 µM [4]: 1.92%
inhibition at 10 µM [5]: 1.52%
inhibition at 10 µM [6]: 0%
inhibition at 10 µM [7]: 0%
inhibition at 10 µM [8]: 0%
inhibition at 10 µM [9]: 0%
inhibition at 10 µM [10]: 0%
inhibition at 10 µM [11]: 15.3%
inhibition at 10 µM [12]: 0%
inhibition at 10 µM [13]: 12.9%
inhibition at 10 µM [14]: 16.8%
inhibition at 10 µM [15]: 4.03%
inhibition at 10 µM [16]: 0%
inhibition at 10 µM [17]: 0%
inhibition at 10 µM [18]: 0%
inhibition at 10 µM [19]: 0%
inhibition at 10 µM [20]: 0%
inhibition at 10 µM [21]: 0%
inhibition at 10 µM [22]: 2.36%
inhibition at 10 µM [23]: 0.53%
inhibition at 10 µM [24]: 12.2%
inhibition at 10 µM [25]: 0%
inhibition at 10 µM [26]: 4.06%
inhibition at 10 µM [27]: 0%
inhibition at 10 µM [28]: 0%
inhibition at 10 µM [29]: 3.59%
inhibition at 10 µM [30]: 0%
inhibition at 10 µM [31]: 0%
inhibition at 10 µM [32]: 25.5%

COc1ccc(/C=C/C(=O)c2ccc(NC(=O)CSc3nnc(-c4ccc5[nH]c(-c6ccccc6)nc5c4)o3)cc2)cc1 [Compound 7c, 2-{5-[2-Phenyl-1 H-benzo[d]imidazol-5-yl]-1,3,4-oxadiazol-2-ylthio}-N-{4-[(E)-3-(4-methoxyphenyl)acryloyl]phenyl}acetamide]
inhibition at 10 µM [1]: 22.6%
inhibition at 10 µM [2]: 22.6%
inhibition at 10 µM [3]: 2.58%
inhibition at 10 µM [4]: 18.7%
inhibition at 10 µM [5]: 0%
inhibition at 10 µM [6]: 0%
inhibition at 10 µM [7]: 5.24%
inhibition at 10 µM [8]: 0%
inhibition at 10 µM [9]: 0%
inhibition at 10 µM [10]: 1.01%
inhibition at 10 µM [11]: 0%
inhibition at 10 µM [12]: 1.55%
inhibition at 10 µM [13]: 6.46%
inhibition at 10 µM [14]: 27.5%
inhibition at 10 µM [15]: 0%
inhibition at 10 µM [16]: 0%
inhibition at 10 µM [17]: 0%
inhibition at 10 µM [18]: 0%
inhibition at 10 µM [19]: 0%
inhibition at 10 µM [20]: 0%
inhibition at 10 µM [21]: 0%
inhibition at 10 µM [22]: 9.58%
inhibition at 10 µM [23]: 5.12%
inhibition at 10 µM [24]: 50.9%
inhibition at 10 µM [25]: 0%
inhibition at 10 µM [26]: 8.76%
inhibition at 10 µM [27]: 0%
inhibition at 10 µM [28]: 2.65%
inhibition at 10 µM [29]: 12.7%
inhibition at 10 µM [30]: 0%
inhibition at 10 µM [31]: 0%
inhibition at 10 µM [32]: 8.67%
